Consider 23 compounds from US5541343A, “Cyclic imino derivatives and pharmaceutical compositions containing them” (Karl Thomae GmbH, priority 1990, dated 1996).

Structures can show the parent of a compound that is named as a salt. Bounds are passed on as bounds.

The subject of one data set is platelet aggregation. Description: Antithrombotic effect: collagen-induced platelet aggregation (Born and Cross method) in platelet-rich plasma. Type of data set: cell-based. The settings on record: Homo sapiens, 10 minutes preincubation at 37° C., 50% change in optical density, read-out: Inhibition of platelet aggregation EC50. The protocol:
The thrombocyte aggregation is measured by the Born and Cross method (J. Physiol. 170: 397 (1964)) in platelet-rich plasma from healthy test subjects. To inhibit coagulation, 3.14% sodium citrate is added to the blood in a ratio by volume of 1:10.
Collagen-induced aggregation
The curve of the decrease in optical density of the platelet suspension is measured and recorded photometrically after the addition of the aggregation-inducing substance. The speed of aggregation is determined from the angle of inclination of the density curve. The point on the curve where maximum transmittance occurs is used to calculate the optical density.
The quantity of collagen is made as small as possible but sufficient to produce an irreversible reaction curve. Standard commercial collagen made by Hormonchemie of Munich is used. Before the addition of collagen, the plasma is incubated for 10 minutes with the substance at 37° C.
From the measurements obtained, an EC50 is determined graphically relating to a 50% change in the optical density in the sense of an inhibition of aggregation.

Another data set deals with human thrombocytes. Description: Fibrinogen binding to human thrombocytes. The following applies: gel-filtered platelets, 125-J-fibrinogen, 20 minutes at ambient temperature; read-out: Fibrinogen binding test IC50. The protocol: 1. Fibrinogen binding to human thrombocytes
Blood obtained by puncture of an antecubital vein is anticoagulated with trisodium citrate (final concentration: 13 mM) and centrifuged for 10 minutes at 170 g. The supernatant platelet-rich plasma is placed on a Sepharose 2B column (Pharmacia) and eluted with a solution of 90 mM common salt, 14 mM trisodium citrate, 5 mM glucose and 50 mM tris(hydroxymethyl)aminomethane, adjusted to pH 7.4. The gel-filtered platelets (GFP) appearing in front of the plasma proteins are used for the binding tests.
50 μl of a 60 mM calcium chloride solution, 50 μl of a 0.6 mM adenosine diphosphate solution, 100 μl of substance solution or solvent and 50 μl of fibrinogen solution (containing 3 μg 125-J-fibrinogen) are added to 750 μl of GFP and incubated for 20 minutes at ambient temperature. The non-specific binding is measured in the presence of 3 mg/ml of cold fibrinogen.
900 μl of the incubate are carefully pipetted onto 250 μl of silicon oil (AP 38: AR 20, 1:2 v/v, Wacker Chemie) in Eppendorf vessels and centrifuged for 2 minutes at 10,000 g. The aqueous supernatant and some of the oil are removed, the tip of the vessel with the platelet pellet is cut off and the quantity of bound fibrinogen is measured in a gamma-counter. The concentration of substance which inhibits fibrinogen binding by 50% is calculated from a concentration series and given as the IC50.

Data set [1] relates to collagen-induced thrombocyte aggregation. The experiment in a line: Collagen-induced thrombocyte aggregation ex vivo in rhesus monkeys following oral administration. The following applies: 1 mg/kg. As to the method: Moreover, the compound of Example 70(1), for example, inhibits collagen-induced thrombocyte aggregation ex vivo in rhesus monkeys following oral administration of 1 mg/kg for more than 8 hours.

Data set [2] is described as follows: Approximate LD50 in rats (tolerability). The settings on record: rat, in vivo, after intravenous route. The protocol:
The new compounds are well tolerated since the approximate LD50 in rats is, for example, for the compound of Example (3) above 100 mg/kg after intravenous route and for the compound of Example 70(1) above 2.000 mg/kg after oral administration.

As for `N=C(N)c1ccc(-c2ccc(OC[C@H]3CNC(=O)[C@@H]3CC(=O)O)cc2)cc1` (relative stereo) [7(89), (3R,S;4R,S)-4-[(4'-amidino-4-biphenylyl)oxymethyl]-3-carboxymethyl-2-pyrrolidinone], in the data set with platelet aggregation, the concentration giving a half-maximal response (EC50) is 2800 nM. For the same compound, the IC50 at human thrombocytes came to 230 nM. In the case of `N=C(N)NCCCCCOc1ccc([C@@H]2C[C@@H](CC(=O)O)C(=O)N2CCCc2ccccc2)cc1` (relative stereo) [31(1), (3S,R;5S,R)-3-carboxymethyl-5-[4-[(5-guanidinopentyl)oxy]phenyl]-1-(3-phenylpropyl)-2-pyrrolidinone], in the data set on platelet aggregation, the EC50 was found to be 66000 nM. Further, the IC50 on human thrombocytes was 4700 nM. Take `COC(=O)C[C@@H]1C[C@@H](COc2ccc(-c3ccc(C(=N)N)cc3)cc2)NC1=O` [6(2), (3S,5S)-5-[(4'-amidino-4-biphenylyl)oxymethyl]-3-[(methoxycarbonyl)methyl]-2-pyrrolidinone×1.25 HCl]: the EC50 in the data set with platelet aggregation stood at 1900 nM. Further, on human thrombocytes, the IC50 was 2300 nM.

Regarding `N=C(N)c1ccc(-c2ccc(N3CC(CP(=O)(O)O)CC3=O)cc2)cc1` (centres unmarked) [6(184), 1-(4'-amidino-4-biphenylyl)-4-phosphonomethyl-2-pyrrolidinone], the half-maximal effective concentration (EC50) with platelet aggregation stood at 1000 nM. Moreover, the IC50 on human thrombocytes is 420 nM. For `N=C(N)c1ccc(-c2ccc(OC[C@@H]3C[C@@H](CC(=O)O)C(=O)N3c3ccccc3)cc2)cc1` [7(1), (3S,5S)-5-[(4'-amidino-4-biphenylyl)oxymethyl]-3-carboxymethyl-1-phenyl-2-pyrrolidinone-dihydrate], in the data set on platelet aggregation, the EC50 came to 170 nM. At human thrombocytes, the IC50 is 24 nM. The matching figures for `N=C(N)c1ccc(-c2ccc(OC[C@@H]3C[C@@H](CC(=O)O)C(=O)N3)cc2)cc1` [7(3), (3S,5S)-5-[(4'-amidino-4-biphenylyl)oxymethyl]-3-carboxymethyl-2-pyrrolidinone]: 60 nM and 31 nM.

On to `Cc1c(OC[C@@H]2C[C@@H](CC(=O)O)C(=O)N2CCCc2ccccc2)ccc(-c2ccc(C(=N)N)cc2)c1C` [7(10), (3S,5S)-5-[(4'-amidino-2,3-dimethyl-4-biphenylyl)oxymethyl]-3-carboxymethyl-1-(3-phenylpropyl)-2-pyrrolidinone-hydrate], for which, in the data set with platelet aggregation, the EC50 amounted to 2600 nM. Also, the half-maximal inhibitory concentration (IC50) at human thrombocytes came to 50 nM. For `N=C(N)c1ccc2c(c1)C(=O)c1cc(OC[C@@H]3C[C@@H](CC(=O)O)C(=O)N3CCCc3ccccc3)ccc1-2` [7(36), (3S,5S)-5-[(7-amidino-9-keto-2-fluorenyl)oxymethyl]-3-carboxymethyl-1-(3-phenylpropyl)-2-pyrrolidinone], in that order: 410 nM and 41 nM.

Turning to `CC(=O)N(C[C@@H]1C[C@@H](CC(=O)O)C(=O)N1CCCc1ccccc1)c1ccc(-c2ccc(C(=N)N)cc2)cc1` [7(40), (3S,5S)-5-[[N-(4'-amidino-4-biphenylyl)-N-acetyl]aminomethyl]-3-carboxymethyl-1-(3-phenylpropyl)-2-pyrrolidinonehydrate], in the data set on platelet aggregation, the EC50 is 2000 nM. For the same compound, the half-inhibitory concentration (IC50) at human thrombocytes was 170 nM. In the case of `N=C(N)c1ccc(Nc2ccccc2C(=O)NC[C@@H]2C[C@@H](CC(=O)O)C(=O)N2CCCc2ccccc2)cc1` [7(41), (3S,5S)-5-[[2-[(4-amidinophenyl)amino]phenyl]carbonylaminomethyl]-3-carboxymethyl-1-(3-phenylpropyl)-2-pyrrolidinone], the EC50 in the data set on platelet aggregation stood at 19000 nM. For the same compound, the IC50 on human thrombocytes came out at 2800 nM.

For the compound `N=C(N)c1cccc(C(=O)c2ccc(OC[C@@H]3C[C@@H](CC(=O)O)C(=O)N3CCCc3ccccc3)cc2)c1` [7(46), (3S,5S)-5-[[4-[(3-amidinophenyl)carbonyl]phenyl]oxymethyl]-3-carboxymethyl-1-(3-phenylpropyl)-2-pyrrolidinone], the EC50 in the data set on platelet aggregation came to 12000 nM. Moreover, at human thrombocytes, the IC50 was 690 nM.

On to `CN(C)C(=O)CN1C(=O)[C@H](CC(=O)O)C[C@H]1COc1ccc(-c2ccc(C(=N)N)cc2)cc1` [7(51), (3S,5S)-5-[(4'-amidino-4-biphenylyl)oxymethyl]-3-carboxymethyl-1-[(dimethylaminocarbonyl)methyl]-2-pyrrolidinone hydrochloride-semihydrate], for which the concentration for a half-maximal effect (EC50) with platelet aggregation worked out at 80 nM. The IC50 on human thrombocytes is 27 nM. For the compound `CC(=O)N1C[C@H](CC(=O)O)C[C@H]1COc1ccc(-c2ccc(C(=N)N)cc2)cc1` [7(56), (3S,5S)-1-acetyl-5-[(4'-amidino-4-biphenylyl)oxymethyl]-3-carboxymethyl-pyrrolidine-semihydrate], in the data set on platelet aggregation, the EC50 is 60 nM. In addition, the IC50 at human thrombocytes worked out at 20 nM.

For the compound `CN(C)S(=O)(=O)N1C[C@H](CC(=O)O)C[C@H]1COc1ccc(-c2ccc(C(=N)N)cc2)cc1` [7(58), (3S,5S)-5-[(4'-amidino-4-biphenylyl)oxymethyl]-3-carboxymethyl-1-(dimethylaminosulphonyl)-pyrrolidine×0.25 water], the EC50 in the data set with platelet aggregation turned out to be 210 nM. The half-inhibitory concentration (IC50) on human thrombocytes stood at 20 nM.

Turning to `N=C(N)c1ccc(-c2ccc(S(=O)(=O)NC[C@@H]3C[C@@H](CC(=O)O)C(=O)N3CCCc3ccccc3)cc2)cc1` [7(70)], the EC50 with platelet aggregation was 19000 nM. Further, the IC50 on human thrombocytes was 400 nM.

In the case of `N=C(N)c1ccc(-c2ccc(OC[C@@H]3C[C@@H](CC(=O)O)C(=O)N3)cc2)cc1F` [7(93), (3S,5S)-5-[(4'-amidino-3'-fluoro-4-biphenylyl)oxymethyl]-3-carboxymethyl-2-pyrrolidinone], the concentration for a half-maximal effect (EC50) with platelet aggregation came out at 100 nM. Moreover, the half-maximal inhibitory concentration (IC50) on human thrombocytes stood at 26 nM. Turning to `NCCCCc1ccc(OC[C@@H]2C[C@@H](CC(=O)O)C(=O)N2CCCc2ccccc2)cc1` [23(8), (3S,5S)-5-[[4-(4-aminobutyl)phenyl]oxymethyl]-3-carboxymethyl-1-(3-phenylpropyl)-2-pyrrolidinonesemihydrate ×1.25 HCl], the EC50 in the data set with platelet aggregation was found to be 20000 nM. Besides, the 50% inhibitory concentration (IC50) at human thrombocytes came to 4600 nM. With `NCCCC(=O)Nc1ccc(OC[C@@H]2C[C@@H](CC(=O)O)C(=O)N2CCCc2ccccc2)cc1` [32(1), (3S,5S)-5-[[4-[(3-aminopropyl)carbonylamino]phenyl]oxymethyl]-3-carboxymethyl-1-(3-phenylpropyl)-2-pyrrolidinone], the 50% effective concentration (EC50) in the data set on platelet aggregation is 33000 nM. In addition, at human thrombocytes, the IC50 is 2200 nM. In the case of `N=C(N)c1ccc(-c2ccc(OC[C@@H]3C[C@@H](CC(=O)O)C(=O)N3CCCc3ccccc3)cc2)cc1` [Example 7, (3S,5S)-5-[(4'-Amidino-4-biphenylyl)oxymethyl)-3-carboxymethyl-1-(3-phenylpropyl)-2-pyrrolidinone-hydrate], in the data set on platelet aggregation, the 50% effective concentration (EC50) is 900 nM. Besides, the 50% inhibitory concentration (IC50) at human thrombocytes is 32 nM. Regarding `NC1CCc2cc(C(=O)NCC[C@@H]3C[C@@H](CC(=O)O)C(=O)N3CCCc3ccccc3)ccc2C1` (stereo partly drawn) [Example 32, (3S,5S)-5-[2-[(6-Amino-5,6,7,8-tetrahydro-2-naphthylcarbonyl)amino]ethyl]-3-carboxymethyl-1-(3-phenylpropyl)-2-pyrrolidinone-semihydrate], the EC50 in the data set on platelet aggregation came to 5800 nM. For the same compound, at human thrombocytes, the half-maximal inhibitory concentration (IC50) is 1200 nM.

Turning to `COC(=O)C[C@@H]1C[C@@H](COc2ccc(-c3ccc(C(=N)NC(=O)OC)cc3)cc2)NC1=O` [Example 70(1), (3S,5S)-5-[[4'-(N-methoxycarbonylamidino)-4biphenylyl]oxymethyl]-3-[(methoxycarbonyl)methyl]-2-pyrrolidinone], the “inhibits collagen-induced thrombocyte aggregation ex vivo (duration of inhibition)” value in data set [1] is “more than 8 hours”.

For the compound `N=C(NO)c1ccc(-c2ccc(OC[C@@H]3C[C@@H](CC(=O)O)C(=O)N3)cc2)cc1` [Example 71, (3S,5S)-3-Carboxymethyl-5-[[4'-(N-hydroxyamidino)-4biphenylyl)oxymethyl]-2-pyrrolidinone], the EC50 in the data set on platelet aggregation is 11000 nM. The IC50 at human thrombocytes is 4600 nM. On to `N=C(N)c1ccc(-c2ccc(OC[C@@H]3C[C@@H](CC(=O)O)C(=O)N3)cc2)cc1` [Example (3), (3S,5S)-5-[(4'-amidino-4-biphenylyl)oxymethyl]-3-carboxymethyl-2-pyrrolidinone], for which, in data set [2], the LD50 was above 100 mg/kg.
